Assays:
[1] = system: low molecular weight GTP binding proteins (SMG) in Met18b-2 cells; assay: [3H]mevalonate labeling of low molecular weight GTP binding proteins (SMG) in Met18b-2 cells; format: cell-based, Chinese hamster
Source text: To study farnesylation in intact cells we used Met18b-2 cells, a line of Chinese hamster ovary (CHO) cells that takes up [3H]mevalonate efficiently (see Faust, J., and Krieger, M. J. Biol. Chem. 262, 1966 (1987)) owing to the production of a mevalonate transport protein (see Kim, C. M., Goldstein, J. L., Brown, M. S. J. Biol. Chem. 267, 23113 (1992)). The [3H]mevalonate is converted by the cells into [3H]farnesyl pyrophosphate and [3H]geranylgeranyl pyrophosphate, which are then attached to proteins (Kim, C. M., Goldstein, J. L., Brown, M. S. J. Biol. Chem. 267, 23113 (1992)). In the assay, stock cultures of Met18b-2 cells were seeded at a density of 3-105 cells per 60 mm dish in 3 ml of medium A (Dulbecco's modified Eagle medium/Ham's F12 medium (1:1, v/v) containing 100 U/ml penicillin and 100 μg/ml streptomycin) supplemented with 5% (v/v) fetal calf serum (FCS). On day 3, each monolayer was refed with 1 ml medium A supplemented with 1% FCS (dialyzed against 0.15 M NaCl). At this point the cells were treated with 100 μM compactin (see Brown, M. S., Faust, J. R., Goldstein, J. L., Kaneko, I., and Endo, A. J. Biol. Chem. 253, 1121 (1978)) which blocks the synthesis of unlabeled mevalonate within the cells. Each compound was dissolved at 25 mM in DMSO/10 mM DTT immediately before use and 10 μl of this solution added directly. After 2 hr incubation at 37° C., each monolayer received 100 μCi [3H]mevalonate (60 Ci/mmol, American Radiolabeled Chemicals, Inc.) added in 100 μl of the medium A, and the incubation continued for 4 hr. The cells were harvested by rinsing three times with 3 ml of 50 mM Tris-HCl/0.15 M NaCl (pH 7.5). 300 μl of lysis buffer (0.5X Dulbecco's phosphate-buffered saline containing 1% Triton X-100, 5 μg/ml leupeptin, 5 μg/ml pepstatin, 0.5 mM phenylmethylsulfonyl fluoride, and 0.05 U/ml aprotinin) was added to each monolayer. After incubation on ice for 5 mon, the lysates were centrifuged 30 sec in a microfuge at 12,000 g. […] Protein concentrations were determined using the BCA protein assay reagent (Pierce) according to the manufacturer's instructions. […]

[2] = system: farnesylated proteins F1, F2 and F3 in Met18b-2 cells; assay: Inhibition of intracellular farnesylation in intact Met18b-2 cells, Triton-soluble proteins F1, F2, F3; format: cell-based, Chinese hamster
Source text: To study farnesylation in intact cells we used Met18b-2 cells, a line of Chinese hamster ovary (CHO) cells that takes up [3H]mevalonate efficiently (see Faust, J., and Krieger, M. J. Biol. Chem. 262, 1966 (1987)) owing to the production of a mevalonate transport protein (see Kim, C. M., Goldstein, J. L., Brown, M. S. J. Biol. Chem. 267, 23113 (1992)). The [3H]mevalonate is converted by the cells into [3H]farnesyl pyrophosphate and [3H]geranylgeranyl pyrophosphate, which are then attached to proteins (Kim, C. M., Goldstein, J. L., Brown, M. S. J. Biol. Chem. 267, 23113 (1992)). In the assay, stock cultures of Met18b-2 cells were seeded at a density of 3-105 cells per 60 mm dish in 3 ml of medium A (Dulbecco's modified Eagle medium/Ham's F12 medium (1:1, v/v) containing 100 U/ml penicillin and 100 μg/ml streptomycin) supplemented with 5% (v/v) fetal calf serum (FCS). On day 3, each monolayer was refed with 1 ml medium A supplemented with 1% FCS (dialyzed against 0.15 M NaCl). At this point the cells were treated with 100 μM compactin (see Brown, M. S., Faust, J. R., Goldstein, J. L., Kaneko, I., and Endo, A. J. Biol. Chem. 253, 1121 (1978)) which blocks the synthesis of unlabeled mevalonate within the cells. Each compound was dissolved at 25 mM in DMSO/10 mM DTT immediately before use and 10 μl of this solution added directly. After 2 hr incubation at 37° C., each monolayer received 100 μCi [3H]mevalonate (60 Ci/mmol, American Radiolabeled Chemicals, Inc.) added in 100 μl of the medium A, and the incubation continued for 4 hr. The cells were harvested by rinsing three times with 3 ml of 50 mM Tris-HCl/0.15 M NaCl (pH 7.5). 300 μl of lysis buffer (0.5X Dulbecco's phosphate-buffered saline containing 1% Triton X-100, 5 μg/ml leupeptin, 5 μg/ml pepstatin, 0.5 mM phenylmethylsulfonyl fluoride, and 0.05 U/ml aprotinin) was added to each monolayer. After incubation on ice for 5 mon, the lysates were centrifuged 30 sec in a microfuge at 12,000 g. The resulting supernatant was tranferred to a new tube, and each pellet was resuspended in 60 μl of lysis buffer. Protein concentrations were determined using the BCA protein assay reagent (Pierce) according to the manufacturer's instructions. Detergent-soluble (supernatant) and -insoluble (pellet) samples were mixed with 2X SDS sample buffer (see Laemmli, U. K. Nature 227, 680 (1970)) and heated at 95° C. for 5 min before electrophoresis. Each lane contained 90 μg protein, and was run on a 12.5% SDS-polyacrylamide gel. The gel was dried, treated with ENTENSIFY (NEN-DuPont), and exposed to Kodak XOMAT-AR film for 9 h at -80° C. to allow visualization of all prenylated proteins. Migration of [14C]methylated molecular weight standards (Amersham) were used as markers.
The results of this assay are shown in FIG. 3, using a final concentration of 250 μM for each inhibitor. […] As shown in the figure, none of the control peptides or control benzodiazepine-peptideomimetics altered the prenylation of proteins in intact cells.
Using the same cells and procedures followed above for Example 125, we measured the dose dependence upon the inhibition of farnesylation in intact cells. […] Compound 37B inhibited the famesylation of F1-3 detectably at 10 μM, and almost completely at 25 μM.
In this manner, it is possible to obtain data regarding the comparative potency of these inhibitors upon the level of intracellular farnesylation. We have chosen to report the EC90% values for these inhibitors as the concentration required for a reduction in the Triton- soluble labelling (denoted F-1, F-2, and F-3) to 90% of control cells (untreated).

CAAX GG transferase = target: T1, CAAX GG transferase (Rattus norvegicus, UniProt P53610+Q04631); assay: Inhibition of CAAX GG transferase (geranylgeranyltransferase); format: biochemical
T1 construct: partially purified CAAX GG transferase; from tissue
T1 sequence (P53610 whole entry, one chain of several): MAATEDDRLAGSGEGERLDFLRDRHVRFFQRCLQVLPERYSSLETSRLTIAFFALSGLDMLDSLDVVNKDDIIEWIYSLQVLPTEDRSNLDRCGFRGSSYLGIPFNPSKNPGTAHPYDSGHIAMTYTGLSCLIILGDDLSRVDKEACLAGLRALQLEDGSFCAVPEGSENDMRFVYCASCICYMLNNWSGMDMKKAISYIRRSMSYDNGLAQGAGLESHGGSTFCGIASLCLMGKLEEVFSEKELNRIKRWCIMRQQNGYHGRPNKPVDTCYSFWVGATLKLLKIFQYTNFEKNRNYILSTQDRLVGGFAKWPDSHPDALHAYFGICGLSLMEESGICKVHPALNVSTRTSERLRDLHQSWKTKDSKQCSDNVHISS
Source text: FIG. 1 compares the inhibitory activity of compound 27B (denoted as BG269B in the figure) on protein prenyltransferases. […] Two other prenyltransferases, both of which transfer 20-carbon geranylgeranyl (GG) groups, have been identified in rat brain. One of thesse, CAAX GG transferase, attaches GG groups to proteins that terminate in CAAX sequences in which X is leucine.
The conditions used to assay the inhibition of CAAX farnesyltransferase are identical to those described above for the in vitro, assay described in Example 121. In FIG. 1B the assay mixture contained, in a final volume of 50 μl, 50 mM sodium Hepes (pH 7.2), 5 mM MgC12, 5 mM DTT, 0.3 mM Nonidet P-40, 0.2% octyl β-glucoside, 1% DMSO, 0.5 μM all trans [3H]geranylgeranyl pyrophosphate (33,000 dpm/pmol; ARC, Inc.), 5 μM recombinant p21^H-rasCVLL, 6.3 μg partially purified CAAX GG transferase (see Seabra, M. C., Reiss, Y., Casey, P. J., Brown, M. S., and Goldstein, J. L. Cell 268, 4055 (1993)) and varying concentrations of the indicated inhibitor. In FIG. 1C, the assay mixture contained in a final volume of 50 μl, 50 mM sodium Hepes (pH 7.2), 5 mM MgCl2, 5 mM DTT, 0.3 mM Nonidet P-40, 0.2% octyl β-D-glucoside, 1% DMSO, 0.5 μM all trans [3H]geranylgeranyl pyrophosphate (33,000 dpm/pmol; ARC, Inc.), 2 μM recombinant Rab1A, 2 ng each of purified Components A and B of Rab GG transferase (see Seabra, M. C., Goldstein, J. L., Sudhof, T. C., and Brown, M. S. J. Biol. Chem. 267, 14497 (1992)) and varying concentrations of the indicated inhibitor.
Each assay was carried out as described in Examples 121 and 122.

## CSCC[C@H](NC(=O)CN1C(=O)C(N(C)C(=O)[C@@H](N)CS)N=C(c2ccccc2)c2ccccc21)C(=O)O (single isomer, unassigned) [27B]
[1]; 250 μM, FIG. 3
  effect on low molecular weight GTP binding proteins (SMG): little effect on the low molecular weight GTP binding proteins
[2]; 250 μM, FIG. 3
  labeling of Triton-soluble farnesylated proteins (F1 to F3): markedly decreased the labeling of all three Triton-soluble farnesylated proteins (F1 to F3)
CAAX GG transferase; FIG. 1B, p21H-rasCVLL substrate, read-out: IC0.5 CAAX GG transferase
  IC50: 0.035 µM
CAAX GG transferase; selectivity vs CAAX farnesyltransferase
  fold higher concentration for CAAX GG transferase than for CAAX farnesyltransferase: more than 100 fold

## COC(=O)[C@H](CCSC)NC(=O)CN1C(=O)C(N(C)C(=O)[C@@H](N)CS)N=C(c2ccccc2)c2ccccc21 (single isomer, unassigned) [37B]
[1]; increasing concentration, FIG. 5, lanes 2-4
  incorporation of radioactivity into SMG proteins: did not detectably inhibit the incorporation of radioactivity into the abundant SMG proteins
[2]; Cricetulus griseus, read-out: concentration of almost complete inhibition of farnesylation of F1-3
  IC (almost complete): 25 µM
[2]; Cricetulus griseus, read-out: concentration of detectable inhibition of farnesylation of F1-3
  minimal effective concentration: 10 µM
[2]; dose dependence, FIG. 4, compared with 27B and 37B
  relative potency in intact cells: much more potent than the parent, compound 27B

Source: patent US5843941A, “Ras farnesyl transferase inhibitors” (Genentech, Inc., priority 1994, dated 1998)
